What is called IC50 is the point on the concentration scale where inhibition reaches its midpoint. A higher IC50 goes with a need for much substance.

Data on four compounds can be found in patent publication US10100078B2, “Nanoparticles, process for preparation and use thereof as carrier for amphipatic and hydrophobic molecules in fields of medicine including cancer treatment and food related compounds” (priority 2011, dated 2018).

The structures appear in SMILES notation.

Series [1] relates to PC-3 prostate cancer cells. Nature of the series: FMCA cancer cell killing effect on PC-3 prostate cancer cells. Format: cell-based, human. As to conditions: PC-3, 3 days.
Method: The human prostate adenocarcinoma, PC-3, cultured in a 50/50 mixture of HAM's F-12K and RPMI-1640. […] All media were supplemented with 10% heat-inactivated fetal calf serum (FCS), 2 mM glutamine, 100 μg/ml streptomycin and 100 IE/ml penicillin (all from Sigma Aldrich Co, St Louis, Mo., USA). All cell lines were incubated at 37° C. in humidified air containing 5% CO2.
The FMCA method is based on measurement of fluorescence generated from hydrolysis of fluorescein diacetate (FDA) to fluorescein by cells with intact plasma membranes. After above mentioned incubation for 3 days, the medium was removed by aspiration. […] The plates were incubated for 45 minutes and the generated fluorescence from each well was measured in a 96-well scanning fluorometer. The fluorescence is proportional to the number of intact cells in the well. Quality criteria for a successful analysis included a fluorescence signal in the control wells of more than five times of the mean blank value, a mean co-efficient of variation (CV) in the control wells of less than 30%.
The samples were 5-fold serially diluted in 6 steps starting from the concentration of 100 μg/ml, and incubated with PC-3 prostate cancer cells for 3 days. Then the cells were stained and read by the FMCA method.
PC-3 cells were exposed for 3 days at pre-determined concentrations of G3 and docetaxel separately and in combination as shown on the graph. […]
In a further series the test system is HL-60 AML cells. Description: FMCA cancer cell killing effect on HL-60 AML cells. Type of series: cell-based, human. As to conditions: HL-60, 3 days, pre-determined concentrations, alone or combined; FIG. 7.
Series [2] can be described thus: Detection of vitamin D3 in the water phase (DiaSorin Liaison). Format: physicochemical. As to conditions: 50% cholesterol and 50% vitamin D3 membrane, assay has about one percent cross-reactivity with vitamin D3. How it is done:
Samples with cholecalciferol (vitamin D3) incorporated in G3 particles were analysed at a University Hospital Laboratory on a Liaison automatic instrument. Although the assay (DiaSorin Liaison) is designed to measure 25-HO-D3 it has about one percent cross-reactivity with non-hydroxylated vitamin D3.
G3 particles were formed using 50% cholesterol and 50% vitamin D3 to form the lipid membrane. Quil A was added into the water phase to generate the G3 particles (for details, please refer to Example 1). 100% Cholesterol and 100% Vitamin D3 in water were used as the controls. Samples with vitamin D3 incorporated in G3 particles were analysed at the Uppsala University Hospital Laboratory on a DiaSorin Liaison automatic instrument.

Method for HL-60 AML cells: All media were supplemented with 10% heat-inactivated fetal calf serum (FCS), 2 mM glutamine, 100 μg/ml streptomycin and 100 IE/ml penicillin (all from Sigma Aldrich Co, St Louis, Mo., USA). All cell lines were incubated at 37° C. in humidified air containing 5% CO2.
The FMCA method is based on measurement of fluorescence generated from hydrolysis of fluorescein diacetate (FDA) to fluorescein by cells with intact plasma membranes. After above mentioned incubation for 3 days, the medium was removed by aspiration. After one wash with PBS, 100 μl/well of FDA dissolved in a physiological buffer (10 μg/ml) was added. The plates were incubated for 45 minutes and the generated fluorescence from each well was measured in a 96-well scanning fluorometer. The fluorescence is proportional to the number of intact cells in the well. Quality criteria for a successful analysis included a fluorescence signal in the control wells of more than five times of the mean blank value, a mean co-efficient of variation (CV) in the control wells of less than 30%.
The samples were 5-fold serial diluted in 6 steps starting from 100 μg/ml, and incubated or 3 days with HL-60 AML cells f. Then the cells were stained and read by the FMCA method.
HL-60 AML cells were exposed for 3 days at pre-determined concentrations of G3 and cytarabine separately and in combination of these two as shown on FIG. 7. […]

On to `CO[C@H]1C(=O)[C@]2(C)[C@@H](OC)C[C@H]3OC[C@@]3(OC(C)=O)[C@H]2[C@H](OC(=O)c2ccccc2)[C@]2(O)C[C@H](OC(=O)[C@H](O)[C@@H](NC(=O)OC(C)(C)C)c3ccccc3)C(C)=C1C2(C)C` [Cabazitaxel, cabazitaxel], for which the IC50 in series [1] (Homo sapiens, 72 h, cabazitaxel from 100 μM, alone or with G3 fixed 1 μM, FIG. 11) turned out to be 25.5 µM.
For `Nc1ccn([C@@H]2O[C@H](CO)[C@@H](O)[C@@H]2O)c(=O)n1` [cytarabine], the cells killed in the series with HL-60 AML cells stood at 55%.
Take `CC(=O)O[C@@]12CO[C@@H]1C[C@H](O)[C@@]1(C)C(=O)[C@H](O)C3=C(C)[C@@H](OC(=O)[C@H](O)[C@@H](NC(=O)OC(C)(C)C)c4ccccc4)C[C@@](O)([C@@H](OC(=O)c4ccccc4)[C@H]21)C3(C)C` [docetaxel]: the cells killed in series [1] (pre-determined concentrations, alone or combined, FIG. 10) worked out at 2%.
Regarding `C=C1CC[C@H](O)C/C1=C/C=C1\CCC[C@]2(C)[C@@H]([C@H](C)CCCC(C)C)CC[C@@H]12` [vitamin D3 control, cholecalciferol], the “vitamin D3 detected” value in series [2] is “only trace amount”.
